Laboratory results from the supplement of paper PMC10627819.

Legend:
Test in all cases: fitness (endpoint OD595 vs no drug) (fraction); higher = more growth
B. subtilis 168 = test system: B. subtilis 168
How it was run: (§1)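 Fitness is computed from the optical density at which cultures reach stationary phase, divided by the robust mean of no-drug control wells. Any value above 1 is set to 1. Cultures started at OD595 0.01 in 384-well plates with TSB, LB Lennox or CY at 37 °C, and OD595 was read every 30 min for 14 h against a first-reading background.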

S. pneumoniae D39V = test system: S. pneumoniae D39V
How it was run: as §1

S. aureus DSM 20231 = test system: S. aureus DSM 20231
How it was run: as §1
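Note: OD595 on entry to stationary phase over no-drug wells; at most 1.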

CN(C)[C@@H]1C(O)=C(C(N)=O)C(=O)[C@@]2(O)C(O)=C3C(=O)c4c(O)ccc(Cl)c4[C@@](C)(O)[C@H]3C[C@@H]12 [Chlortetracycline] + CC(=O)NC[C@H]1CN(c2ccc(N3CCOCC3)c(F)c2)C(=O)O1 [Linezolid]
one replicate
Conditions	fitness
B. subtilis 168, first compound 0.0475 µg/mL, partner 0.0625 µg/mL	0.751
B. subtilis 168, first compound 0.095 µg/mL, partner 0.0625 µg/mL	0.53
B. subtilis 168, first compound 0.19 µg/mL, partner 0.0625 µg/mL	0.213
S. aureus DSM 20231, first compound 0.006 µg/mL, partner 0.125 µg/mL	0.649
S. aureus DSM 20231, first compound 0.006 µg/mL, partner 0.25 µg/mL	0.59
S. aureus DSM 20231, first compound 0.006 µg/mL, partner 0.5 µg/mL	0.213
S. aureus DSM 20231, first compound 0.012 µg/mL, partner 1 µg/mL	0.0536
S. aureus DSM 20231, first compound 0.024 µg/mL, partner 1 µg/mL	0.0397
S. aureus DSM 20231, first compound 0.048 µg/mL, partner 1 µg/mL	0.0171

Conditions	fitness
B. subtilis 168, first compound 0.0475 µg/mL, partner 0.25 µg/mL	0.0413
B. subtilis 168, first compound 0.0475 µg/mL, partner 0.5 µg/mL	0.0371
B. subtilis 168, first compound 0.095 µg/mL, partner 0.25 µg/mL	0.0555
B. subtilis 168, first compound 0.095 µg/mL, partner 0.5 µg/mL	0.0371
B. subtilis 168, first compound 0.19 µg/mL, partner 0.125 µg/mL	0.0875
B. subtilis 168, first compound 0.19 µg/mL, partner 0.25 µg/mL	0.0467
B. subtilis 168, first compound 0.19 µg/mL, partner 0.5 µg/mL	0.0344
S. aureus DSM 20231, first compound 0.012 µg/mL, partner 0.125 µg/mL	0.516
S. aureus DSM 20231, first compound 0.012 µg/mL, partner 0.25 µg/mL	0.423
S. aureus DSM 20231, first compound 0.012 µg/mL, partner 0.5 µg/mL	0.135
S. aureus DSM 20231, first compound 0.024 µg/mL, partner 0.25 µg/mL	0.179
S. aureus DSM 20231, first compound 0.024 µg/mL, partner 0.5 µg/mL	0.0849
S. aureus DSM 20231, first compound 0.048 µg/mL, partner 0.125 µg/mL	0.141
S. aureus DSM 20231, first compound 0.048 µg/mL, partner 0.25 µg/mL	0.0729
S. aureus DSM 20231, first compound 0.048 µg/mL, partner 0.5 µg/mL	0.0288
S. pneumoniae D39V, first compound 0.012 µg/mL, partner 0.105 µg/mL	0.785
S. pneumoniae D39V, first compound 0.012 µg/mL, partner 0.21 µg/mL	0.685
S. pneumoniae D39V, first compound 0.012 µg/mL, partner 0.42 µg/mL	0.422
S. pneumoniae D39V, first compound 0.024 µg/mL, partner 0.105 µg/mL	0.739
S. pneumoniae D39V, first compound 0.024 µg/mL, partner 0.21 µg/mL	0.585
S. pneumoniae D39V, first compound 0.024 µg/mL, partner 0.42 µg/mL	0.251
S. pneumoniae D39V, first compound 0.048 µg/mL, partner 0.105 µg/mL	0.609
S. pneumoniae D39V, first compound 0.048 µg/mL, partner 0.21 µg/mL	0.387
S. pneumoniae D39V, first compound 0.048 µg/mL, partner 0.42 µg/mL	0.211
S. pneumoniae D39V, first compound 0.375 µg/mL, partner 0.2 µg/mL	0.0262
S. pneumoniae D39V, first compound 0.375 µg/mL, partner 0.4 µg/mL	0.028
S. pneumoniae D39V, first compound 0.375 µg/mL, partner 0.8 µg/mL	0.0276
S. pneumoniae D39V, first compound 0.75 µg/mL, partner 0.2 µg/mL	0.025
S. pneumoniae D39V, first compound 0.75 µg/mL, partner 0.4 µg/mL	0.04
S. pneumoniae D39V, first compound 0.75 µg/mL, partner 0.8 µg/mL	0.0503
S. pneumoniae D39V, first compound 1.5 µg/mL, partner 0.2 µg/mL	0.0494
S. pneumoniae D39V, first compound 1.5 µg/mL, partner 0.4 µg/mL	0.0334
S. pneumoniae D39V, first compound 1.5 µg/mL, partner 0.8 µg/mL	0.044

CN(C)[C@@H]1C(O)=C(C(N)=O)C(=O)[C@@]2(O)C(O)=C3C(=O)c4c(O)ccc(Cl)c4[C@@](C)(O)[C@H]3C[C@@H]12 [Chlortetracycline] + CCC[C@@H]1C[C@@H](C(=O)N[C@@H]([C@H]2O[C@H](SC)[C@H](O)[C@@H](O)[C@H]2O)[C@@H](C)O)N(C)C1 [Lincomycin]
Conditions	fitness
B. subtilis 168, first compound 0.0475 µg/mL, partner 0.1 µg/mL	0.87
B. subtilis 168, first compound 0.0475 µg/mL, partner 0.2 µg/mL	0.862
B. subtilis 168, first compound 0.0475 µg/mL, partner 0.4 µg/mL	0.85
B. subtilis 168, first compound 0.095 µg/mL, partner 0.1 µg/mL	0.805
B. subtilis 168, first compound 0.095 µg/mL, partner 0.2 µg/mL	0.817
B. subtilis 168, first compound 0.095 µg/mL, partner 0.4 µg/mL	0.803
B. subtilis 168, first compound 0.19 µg/mL, partner 0.1 µg/mL	0.648
B. subtilis 168, first compound 0.19 µg/mL, partner 0.2 µg/mL	0.489
B. subtilis 168, first compound 0.19 µg/mL, partner 0.4 µg/mL	0.406
S. aureus DSM 20231, first compound 0.012 µg/mL, partner 0.1 µg/mL	0.472
S. aureus DSM 20231, first compound 0.012 µg/mL, partner 0.2 µg/mL	0.259
S. aureus DSM 20231, first compound 0.012 µg/mL, partner 0.4 µg/mL	0.0974
S. aureus DSM 20231, first compound 0.024 µg/mL, partner 0.1 µg/mL	0.233
S. aureus DSM 20231, first compound 0.024 µg/mL, partner 0.2 µg/mL	0.104
S. aureus DSM 20231, first compound 0.024 µg/mL, partner 0.4 µg/mL	0.0491
S. aureus DSM 20231, first compound 0.048 µg/mL, partner 0.1 µg/mL	0.0441
S. aureus DSM 20231, first compound 0.048 µg/mL, partner 0.2 µg/mL	0.0385
S. aureus DSM 20231, first compound 0.048 µg/mL, partner 0.4 µg/mL	0.0333
S. pneumoniae D39V, first compound 0.012 µg/mL, partner 0.215 µg/mL	0.802
S. pneumoniae D39V, first compound 0.012 µg/mL, partner 0.43 µg/mL	0.716
S. pneumoniae D39V, first compound 0.012 µg/mL, partner 0.86 µg/mL	0.268
S. pneumoniae D39V, first compound 0.024 µg/mL, partner 0.215 µg/mL	0.769
S. pneumoniae D39V, first compound 0.024 µg/mL, partner 0.43 µg/mL	0.666
S. pneumoniae D39V, first compound 0.024 µg/mL, partner 0.86 µg/mL	0.246
S. pneumoniae D39V, first compound 0.048 µg/mL, partner 0.215 µg/mL	0.636
S. pneumoniae D39V, first compound 0.048 µg/mL, partner 0.43 µg/mL	0.426
S. pneumoniae D39V, first compound 0.048 µg/mL, partner 0.86 µg/mL	0.222
S. pneumoniae D39V, first compound 0.375 µg/mL, partner 0.2 µg/mL	0.0295
S. pneumoniae D39V, first compound 0.375 µg/mL, partner 0.4 µg/mL	0.0454
S. pneumoniae D39V, first compound 0.375 µg/mL, partner 0.8 µg/mL	0.0386
S. pneumoniae D39V, first compound 0.75 µg/mL, partner 0.2 µg/mL	0.0393
S. pneumoniae D39V, first compound 0.75 µg/mL, partner 0.4 µg/mL	0.0417
S. pneumoniae D39V, first compound 0.75 µg/mL, partner 0.8 µg/mL	0.0458
S. pneumoniae D39V, first compound 1.5 µg/mL, partner 0.2 µg/mL	0.0273
S. pneumoniae D39V, first compound 1.5 µg/mL, partner 0.4 µg/mL	0.035
S. pneumoniae D39V, first compound 1.5 µg/mL, partner 0.8 µg/mL	0.0234

one replicate
Conditions	fitness
B. subtilis 168, first compound 0.0475 µg/mL, partner 0.8 µg/mL	0.845
B. subtilis 168, first compound 0.0475 µg/mL, partner 1.6 µg/mL	0.761
B. subtilis 168, first compound 0.095 µg/mL, partner 0.8 µg/mL	0.692
B. subtilis 168, first compound 0.095 µg/mL, partner 1.6 µg/mL	0.5
B. subtilis 168, first compound 0.19 µg/mL, partner 0.8 µg/mL	0.0991
B. subtilis 168, first compound 0.19 µg/mL, partner 1.6 µg/mL	0.0613
S. aureus DSM 20231, first compound 0.006 µg/mL, partner 0.1 µg/mL	0.712
S. aureus DSM 20231, first compound 0.006 µg/mL, partner 0.2 µg/mL	0.483
S. aureus DSM 20231, first compound 0.006 µg/mL, partner 0.4 µg/mL	0.203

CN(C)[C@@H]1C(O)=C(C(N)=O)C(=O)[C@@]2(O)C(O)=C3C(=O)c4c(O)ccc(Cl)c4[C@@](C)(O)[C@H]3C[C@@H]12 [Chlortetracycline] + CCN(CC)CCOC(=O)c1ccc(N)cc1 [Procaine]
fitness
Conditions	partner 85.5 µg/mL	partner 171 µg/mL	partner 342 µg/mL
B. subtilis 168, first compound 0.0475 µg/mL	0.908	0.855	0.878
B. subtilis 168, first compound 0.095 µg/mL	0.695	0.699	0.703
B. subtilis 168, first compound 0.19 µg/mL	–	0.528	–
S. aureus DSM 20231, first compound 0.012 µg/mL	0.568	0.615	0.613
S. aureus DSM 20231, first compound 0.024 µg/mL	0.23	0.2	0.2
S. aureus DSM 20231, first compound 0.048 µg/mL	0.0791	0.058	0.0382
S. pneumoniae D39V, first compound 0.375 µg/mL	0.0458	0.0259	0.0318
S. pneumoniae D39V, first compound 0.75 µg/mL	0.055	0.0347	0.0395
S. pneumoniae D39V, first compound 1.5 µg/mL	0.0277	0.0174	0.0396

fitness, one replicate
Conditions	partner 85.5 µg/mL	partner 171 µg/mL	partner 342 µg/mL
S. aureus DSM 20231, first compound 0.006 µg/mL	0.713	0.8	0.737
S. pneumoniae D39V, first compound 0.012 µg/mL	0.95	0.897	0.929
S. pneumoniae D39V, first compound 0.024 µg/mL	0.921	0.835	0.86
S. pneumoniae D39V, first compound 0.048 µg/mL	0.835	0.726	0.736

CN(C)[C@@H]1C(O)=C(C(N)=O)C(=O)[C@@]2(O)C(O)=C3C(=O)c4c(O)ccc(Cl)c4[C@@](C)(O)[C@H]3C[C@@H]12 [Chlortetracycline] + CN1C2=CC=CC=C2N=C3C1=CC=CC3=O [Pyocyanin]
fitness
Conditions	partner 0.325 µg/mL	partner 0.65 µg/mL	partner 1.25 µg/mL	partner 1.3 µg/mL	partner 2.5 µg/mL	partner 5 µg/mL
B. subtilis 168, first compound 0.0475 µg/mL	–	–	0.837	–	0.825	0.692
B. subtilis 168, first compound 0.095 µg/mL	–	–	0.774	–	0.7	0.597
B. subtilis 168, first compound 0.19 µg/mL	–	–	0.594	–	0.529	0.416
S. aureus DSM 20231, first compound 0.012 µg/mL	–	–	0.487	–	0.43	0.359
S. aureus DSM 20231, first compound 0.024 µg/mL	–	–	0.185	–	0.147	0.121
S. aureus DSM 20231, first compound 0.048 µg/mL	–	–	0.0813	–	0.0826	0.0871
S. pneumoniae D39V, first compound 0.375 µg/mL	0.0228	0.0497	–	0.031	–	–
S. pneumoniae D39V, first compound 0.75 µg/mL	0.0553	0.0813	–	0.104	–	–
S. pneumoniae D39V, first compound 1.5 µg/mL	0.0507	0.0698	–	0.0588	–	–

one replicate
Conditions	fitness
S. aureus DSM 20231, first compound 0.006 µg/mL, partner 1.25 µg/mL	0.748
S. aureus DSM 20231, first compound 0.006 µg/mL, partner 2.5 µg/mL	0.692
S. aureus DSM 20231, first compound 0.006 µg/mL, partner 5 µg/mL	0.602
S. pneumoniae D39V, first compound 0.012 µg/mL, partner 0.325 µg/mL	0.893
S. pneumoniae D39V, first compound 0.012 µg/mL, partner 0.65 µg/mL	0.958
S. pneumoniae D39V, first compound 0.024 µg/mL, partner 0.325 µg/mL	0.932
S. pneumoniae D39V, first compound 0.024 µg/mL, partner 0.65 µg/mL	0.885
S. pneumoniae D39V, first compound 0.048 µg/mL, partner 0.325 µg/mL	0.858
S. pneumoniae D39V, first compound 0.048 µg/mL, partner 0.65 µg/mL	0.868
